≈ marks a conversion by molar mass, not a printed value.
Tests used:
beet armyworm [1] = experiment: Effect on beet armyworm, contact test (treated Teflon discs); format: in vivo, S. exigua (beet armyworm); conditions: second-instar larvae, sprayed Teflon discs 24 hours, then 5 more days on untreated leaf, 25° C; for LC50: Spodoptera exigua, 144 h, read-out: BEET ARMYWORM Contact Test LC50, ppm
Protocol: (§1) Effect on Tobacco Budworm and Beet Armyworm by Contact.
(§2) Stock solutions of the compounds to be tested having a known concentration were prepared by dissolving weighed amounts in a 90:10 mixture of high-purity acetone and ethanol and these solutions were diluted with distilled water (containing 0.05 percent by weight Tween 20™ surfactant) to obtain the spray solutions of known concentration employed. Teflon™ discs 5 cm in diameter were placed in plastic petri dishes of slightly larger diameter and these dishes were sprayed by means of a track sprayer applying 0.104 mL of spray solution per cup. The Teflon™ discs were allowed to dry, a single second-instar H. virescens (tobacco budworm) or S. exigua (beet armyworm) larva was placed on each Teflon™ disc, and each disc was capped with a plastic lid. Ten Teflon™ discs were prepared for each application rate and five application rates were usually run. Treated discs were stored for 24 hours at 25° C. and then the Teflon™ disc was removed and replaced with an untreated cotton leaf disc. After 5 more days of storage at 25 ° C. the dishes were graded for mortality. Untreated controls and positive controls (cypermethrin) were run simultaneously. The amount of test chemical required to kill half of the larvae (LD50) was calculated.

tobacco budworm [2] = experiment: Effect on tobacco budworm, contact and ingestion test (treated cotton leaf discs); format: in vivo, H. virescens (tobacco budworm); conditions: second-instar larvae, sprayed cotton leaf discs, 5 days at 25° C; for LC50: Heliothis virescens, foliar, 120 h, read-out: TOBACCO BUDWORM Contact and Ingestion Test LC50, ppm
Protocol: (§3) Effect on Tobacco Budworm and Beet Armyworm by Leaf Ingestion and/or Contact.
(§4) Stock solutions of the compounds to be tested having a known concentration were prepared by dissolving weighed amounts in a 90:10 mixture of high-purity acetone and ethanol and these solutions were diluted with distilled water (containing 0.05 percent by weight Tween 20™ surfactant) to obtain the spray solutions of known concentration employed. Greenhouse-grown cotton leaves of uniform age were cut into 2.5 cm diameter discs and one disc was placed in the bottom of each of a number of 30 mL plastic cups. The cups were then sprayed by means of a track sprayer applying 0.055 mL of spray solution per cup. The leaf discs were allowed to dry and then a single second-instar H. virescens (tobacco budworm) or S. exigua (beet armyworm) larva was added to each cup and each cup was capped with a perforated plastic lid. Ten cups were prepared for each insect species and each application rate and five applications rates were usually run. Treated cups were stored for 5 days at 25° C. and were then graded for mortality. Untreated controls and positive controls (cypermethrin) were run simultaneously. The amount of test chemical required to kill half of the larvae (LD50) was calculated.

beet armyworm [3] = experiment: Effect on beet armyworm, contact and ingestion test (treated cotton leaf discs); format: in vivo, S. exigua (beet armyworm); conditions: second-instar larvae, sprayed cotton leaf discs, 5 days at 25° C; for LC50: Spodoptera exigua, foliar, 120 h, read-out: BEET ARMYWORM Contact and Ingestion Test LC50, ppm
Protocol: as §3, §4

tobacco budworm [4] = experiment: Effect on tobacco budworm, contact test (treated Teflon discs); format: in vivo, H. virescens (tobacco budworm); conditions: second-instar larvae, sprayed Teflon discs 24 hours, then 5 more days on untreated leaf, 25° C; for LC50: Heliothis virescens, 144 h, read-out: TOBACCO BUDWORM Contact Test LC50, ppm
Protocol: as §1, §2

Row | Compound | LC50 (beet armyworm [1]) [µg/mL] | LC50 (beet armyworm [3]) [µg/mL] | LC50 (tobacco budworm [2]) [µg/mL] | other results
1 | 4,5-Dihydro-3-(4-fluorophenyl)-4-(4-fluoro-5-trifluoromethyl-2-pyridinyl)- N-(4-trifluoromethoxyphenyl)-1H-pyrazole-1-carboxamide | – | – | – | BEET ARMYWORM Contact Test LC50, ppm (beet armyworm [1]; 8640 min): 7.6 ppm; TOBACCO BUDWORM Contact and Ingestion Test LC50, ppm (tobacco budworm [2]): 10.0 ppm; BEET ARMYWORM Contact and Ingestion Test LC50, ppm (beet armyworm [3]): 5.2 ppm; TOBACCO BUDWORM Contact Test LC50, ppm (tobacco budworm [4]; 8640 min): 80 ppm
2 | O=C(Nc1ccc(C(F)(F)F)cc1)N1CC(c2ccc(Cl)nn2)C(c2ccc(Cl)cc2)=N1 (stereo not drawn) [AA, 4-(6-Chloro-3-pyridazinyl)-3-(4-chlorophenyl)-4,5-dihydro-N-(4-trifluoromethylphenyl)-1H-pyrazole-1-carboxamide] | 11.7 (≈ 24.4 µM) | 20.3 (≈ 42.3 µM) | – | –
3 | O=C(Nc1ccc(C(F)(F)F)cc1)N1CC(c2ccc(C(F)(F)F)cn2)C(c2ccc(Cl)cc2)=N1 (stereo not drawn) [B, 3-(4-Chorophenyl)-4,5-dihydro-N-(4-trifluoromethylphenyl)-4-(5-trifluoromethyl-2-pyridinyl)-1H-pyrazole-1-carboxamide] | > 80 | 10 (≈ 19.5 µM) | 7.6 (≈ 14.8 µM) | LC50 (tobacco budworm [4]): > 80 µg/mL
4 | O=C(Nc1ccc(OC(F)(F)F)cc1)N1CC(c2ccc(C(F)(F)F)cn2)C(c2ccc(Cl)cc2)=N1 (stereo not drawn) [C, 3-(4-Chlorophenyl)-4,5-dihydro-N-(4-trifluoromethoxyphenyl)-4-(5-trifluoromethyl-2-pyridinyl)-1H-pyrazole-1-carboxamide] | – | 7.9 (≈ 14.9 µM) | 9.1 (≈ 17.2 µM) | –
5 | CSc1ccc(NC(=O)N2CC(c3ccc(C(F)(F)F)cn3)C(c3ccc(Cl)cc3)=N2)cc1 (stereo not drawn) [Compound A, 3-(4-Chlorophenyl)-4,5-dihydro-N-(4-(methylthio)phenyl)-4-(5-trifluoromethyl-2-pyridinyl)-1H-pyrazole-1-carboxamide] | – | 107 (≈ 218 µM) | > 400 | –
6 | O=C(Nc1ccc(Cl)cc1)N1CC(c2ccc(C(F)(F)F)cn2)C(c2ccc(Cl)cc2)=N1 (stereo not drawn) [D, 3-(4-Chlorophenyl)-N-(4-chlorophenyl)-4,5-dihydro-4-(5-trifluoromethyl-2-pyridinyl)-1H-pyrazole-1-carboxamide] | 12.6 (≈ 26.3 µM) | 1.8 (≈ 3.76 µM) | 2.1 (≈ 4.38 µM) | LC50 (tobacco budworm [4]): 35.6 µg/mL (≈ 74.3 µM)
7 | O=C(Nc1ccc(OC(F)(F)F)cc1)N1CC(c2cccc(F)n2)C(c2ccc(F)cc2)=N1 (stereo not drawn) [E, 4,5-Dihydro-3-(4-fluorophenyl)-4-(6-fluoro-2-pyridinyl)-N-(4-trifluoromethoxyphenyl)-1H-pyrazole-1-carboxamide] | – | 13.6 (≈ 29.4 µM) | 70.7 (≈ 153 µM) | –
8 | O=C(Nc1ccc(Cl)cc1)N1CC(c2cccc(F)n2)C(c2ccc(F)cc2)=N1 (stereo not drawn) [F, N-(4-Chlorophenyl)-4,5-dihydro-3-(4-fluorophenyl)-4-(6-fluoro-2-pyridinyl)-1H-pyrazole-1-carboxamide] | – | > 800 | 606 (≈ 1470 µM) | –
9 | O=C(Nc1ccc(OC(F)(F)F)cc1)N1CC(c2ccc(C(F)(F)F)cn2)C(c2ccc(F)cc2)=N1 (stereo not drawn) [H, 4,5-Dihydro-3-(4-fluorophenyl)-N-(4-trifluoromethoxyphenyl)-4-(5-trifluoromethyl-2-pyridinyl)-1H-pyrazole-1-carboxamide] | < 5 | 1.3 (≈ 2.54 µM) | 2.3 (≈ 4.49 µM) | LC50 (tobacco budworm [4]): 23.3 µg/mL (≈ 45.5 µM)
10 | O=C(Nc1ccc(Cl)cc1)N1CC(c2ccc(C(F)(F)F)cn2)C(c2ccc(F)cc2)=N1 (stereo not drawn) [I, N-(4-Chlorophenyl)-4,5-dihydro-3-(4-fluorophenyl)-4-(5-trifluoromethyl-2-pyridinyl)-1H-pyrazole-1-carboxamide] | < 5 | 2.1 (≈ 4.54 µM) | 1.3 (≈ 2.81 µM) | LC50 (tobacco budworm [4]): 49.7 µg/mL (≈ 107 µM)
11 | O=C(Nc1ccc(OC(F)(F)F)cc1)N1CC(c2cncnc2)C(c2ccccc2)=N1 (stereo not drawn) [J, 4,5-Dihydro-3-phenyl-4-(5-pyrimidinyl),N-(4-trifluoromethoxyphenyl)-1H-pyrazole-1-carboxamide] | – | > 800 | 135 (≈ 316 µM) | –
12 | O=C(Nc1ccc(OC(F)(F)F)cc1)N1CC(c2cnc3ccc(Cl)cc3c2)C(c2ccccc2)=N1 (stereo not drawn) [K, 4-(6-Chloro-3-quinolinyl)-4,5-dihydro-3-phenyl-N-(4-trifluoromethoxyphenyl)-1H-pyrazole-1-carboxamide] | – | 29.7 (≈ 58.1 µM) | 70.7 (≈ 138 µM) | –
13 | O=C(Nc1ccc(SC(F)(F)F)cc1)N1CC(c2ccc(C(F)(F)F)cn2)C(c2ccc(F)cc2)=N1 (stereo not drawn) [L, 4,5-Dihydro-3-(4-fluorophenyl)-4-(5-trifluoromethyl-2-pyridinyl)-N-((4-trifluoromethylthio)phenyl)-1H-pyrazol-1-carboxamide] | > 80 | 7.9 (≈ 14.9 µM) | 4.2 (≈ 7.95 µM) | LC50 (tobacco budworm [4]): 63.5 µg/mL (≈ 120 µM)
14 | N#Cc1ccc(C2CN(C(=O)Nc3ccc(OC(F)(F)F)cc3)N=C2c2ccc(Cl)cc2)nc1 (stereo not drawn) [N] | 7.1 (≈ 14.6 µM) | 2.1 (≈ 4.32 µM) | 1.5 (≈ 3.09 µM) | LC50 (tobacco budworm [4]): 18.3 µg/mL (≈ 37.7 µM)
15 | O=C(Nc1ccc(OC(F)(F)F)cc1)N1CC(c2ccc3cc(Cl)ccc3n2)C(c2ccc(Cl)cc2)=N1 (stereo not drawn) [O, 3-(4-Chlorophenyl)-4-(6-chloro-2-quinolinyl)-4,5-dihydro-N-(4-trifluoromethoxyphenyl)-1H-pyrazole-1-carboxamide] | – | > 200 | > 200 | –
16 | O=C(Nc1ccc(OC(F)(F)F)cc1)N1CC(c2ccc3ccc(Cl)cc3n2)C(c2ccc(Cl)cc2)=N1 (stereo not drawn) [P, 3-(4-Chlorophenyl)-4-(7-chloro-2-quinolinyl)-4,5-dihydro-N-(4-trifluoromethoxyphenyl)-1H-pyrazole-1-carboxamide] | – | 40.6 (≈ 74.4 µM) | 64.8 (≈ 119 µM) | –
17 | O=C(Nc1ccc(OC(F)(F)F)cc1)N1CC(c2cnc3cc(Cl)ccc3c2)C(c2ccccc2)=N1 (stereo not drawn) [Q, 4-(7-Chloro-3-quinolinyl)-4,5-dihydro-3-phenyl-N-(4-trifluoromethoxyphenyl)-1H-pyrazole-1-carboxamide] | – | 13.4 (≈ 26.2 µM) | 30.8 (≈ 60.3 µM) | –
18 | O=C(Nc1ccc(OC(F)(F)F)cc1)N1CC(c2cccnc2)C(c2ccccc2)=N1 (stereo not drawn) [R, 4,5-Dihydro-3-phenyl-4-(3-pyridinyl)-N-(4-trifluoromethoxyphenyl)-1H-pyrazole-1-carboxamide] | – | > 400 | 186 (≈ 436 µM) | –
19 | O=C(Nc1ccc(OC(F)(F)F)cc1)N1CC(c2cncnc2)C(c2ccc(F)cc2)=N1 (stereo not drawn) [S, 4,5-Dihydro-3-(4-fluorophenyl)-4-(5-pyrimidinyl)-N-(4-trifluoromethoxyphenyl)-1H-pyrazole-1-carboxamide] | – | 490 (≈ 1100 µM) | 50 (≈ 112 µM) | –
20 | O=C(Nc1ccc(OC(F)(F)F)cc1)N1CC(c2cc(C(F)(F)F)nc(C(F)(F)F)c2)C(c2ccccc2)=N1 (stereo not drawn) [U, 4,5-Dihydro-4-(2,6-di(trifluoromethyl)-4-pyridinyl)-3-phenyl-N-(4-trifluoromethoxyphenyl)-1H-pyrazole-1-carboxamide] | > 100 | 37.9 (≈ 67.4 µM) | – | –
21 | O=C(Nc1ccc(OC(F)(F)F)cc1)N1CC(c2cnc(C(F)(F)F)nc2)C(c2ccc(F)cc2)=N1 (stereo not drawn) [W, 4,5-Dihydro-3-(4-fluorophenyl)-N-(4-trifluoromethoxyphenyl)-4-(2-trifluoromethyl-5-pyrimidinyl)-1-H-pyrazole-1-carboxamide] | – | 7.5 (≈ 14.6 µM) | 6.1 (≈ 11.9 µM) | –
22 | O=C(Nc1ccc(C(F)(F)F)cc1)N1CC(c2cnc(C(F)(F)F)cn2)C(c2ccc(F)cc2)=N1 (stereo not drawn) [Y, 4,5-Dihydro-3-(4-fluorophenyl)-N-(4-trifluoromethylphenyl)-4-(5-trifluoromethyl-2-pyrazinyl)-1H-pyrazole-1-carboxamide] | 10.5 (≈ 21.1 µM) | > 25 | – | –
23 | O=C(Nc1ccc(C(F)(F)F)cc1)N1CC(c2cncc(Cl)n2)C(c2ccc(F)cc2)=N1 (stereo not drawn) [Z, 4-(6-Chloro-2-pyrazinyl)-4,5-dihydro-3-(4-fluorophenyl)-N-(4-trifluoromethylphenyl)-1H-pyrazole-1-carboxamide] | 75.8 (≈ 163 µM) | > 100 | – | –

— patent publication US5493024A, “3,4,N-trisubstituted-4,5-dihydro-1H-pyrazole-1-carboxamides and their use as insectioides” (DowElanco, priority 1993, dated 1996)
